Test results from patent US8791132B2, “Compounds and methods for treatment of hypertension” (Medivation Technologies, Inc., priority 2011, dated 2014).

Legend:
[1] = biological target: T1, human recombinant adrenergic α2B receptor (Homo sapiens, UniProt P18089); test: Radioligand binding, adrenergic α2B ([3H]Rauwolscine); settings: 0.1 μM compound; read-out: Percentage inhibition of ligand binding, Adrenergic α2B
T1 construct: expressed in transfected cells; host or cells: CHO-K1
T1 sequence (P18089 1-450): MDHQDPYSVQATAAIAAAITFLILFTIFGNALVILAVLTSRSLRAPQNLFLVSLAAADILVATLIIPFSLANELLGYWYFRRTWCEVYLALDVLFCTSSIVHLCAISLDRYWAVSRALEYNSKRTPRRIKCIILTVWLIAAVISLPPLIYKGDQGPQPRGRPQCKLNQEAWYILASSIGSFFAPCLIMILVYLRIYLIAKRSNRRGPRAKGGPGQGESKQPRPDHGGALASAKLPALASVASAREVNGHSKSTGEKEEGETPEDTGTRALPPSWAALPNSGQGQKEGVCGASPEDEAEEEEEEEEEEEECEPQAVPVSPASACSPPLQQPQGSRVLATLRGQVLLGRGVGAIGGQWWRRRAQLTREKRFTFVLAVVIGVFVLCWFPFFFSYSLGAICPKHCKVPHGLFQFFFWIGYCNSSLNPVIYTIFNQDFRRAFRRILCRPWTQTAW
Method in brief: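 Values are percent inhibition of specific radioligand binding. The receptor, expressed in CHO-K1 cells, was exposed to 2.5 nM [3H]Rauwolscine at 25° C for 60 min, with 10 μM Prazosin marking non-specific binding.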

[2] = biological target: T2, human recombinant adrenergic α2A receptor (Homo sapiens, UniProt P08913); test: Radioligand binding, adrenergic α2A ([3H]MK-912); settings: 0.1 μM compound; read-out: Percentage inhibition of ligand binding, Adrenergic α2A
T2 construct: expressed in transfected cells; host or cells: insect Sf9 cells
T2 sequence (P08913 1-465): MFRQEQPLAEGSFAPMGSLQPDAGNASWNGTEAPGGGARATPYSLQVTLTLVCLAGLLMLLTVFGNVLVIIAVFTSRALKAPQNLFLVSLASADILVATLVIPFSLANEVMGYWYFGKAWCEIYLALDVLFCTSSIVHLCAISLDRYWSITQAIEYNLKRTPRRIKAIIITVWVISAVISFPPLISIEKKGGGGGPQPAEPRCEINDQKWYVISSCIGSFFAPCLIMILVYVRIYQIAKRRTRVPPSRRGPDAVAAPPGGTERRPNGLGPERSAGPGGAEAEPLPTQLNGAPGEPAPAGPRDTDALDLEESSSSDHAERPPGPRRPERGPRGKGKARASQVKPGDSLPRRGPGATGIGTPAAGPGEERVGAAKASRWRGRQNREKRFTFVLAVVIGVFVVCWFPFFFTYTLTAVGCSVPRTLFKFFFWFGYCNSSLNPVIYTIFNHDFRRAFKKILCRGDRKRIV
Method in brief: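 Sf9 membranes, 1 nM [3H]MK-912, 60 min, 25 °C, Tris-HCl pH 7.4/MgCl2/EDTA buffer. NSB: 10 μM WB-4101. Filtration, counting; % inhibition of specific binding.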

[3] = biological target: T3, rat adrenergic α1B receptor (Rattus norvegicus, UniProt P15823); test: Radioligand binding, adrenergic α1B ([3H]Prazosin); settings: 0.1 μM compound; read-out: Percentage inhibition of ligand binding, Adrenergic α1B
T3 construct: rat adrenergic α1B receptor obtained from Wistar Rat liver; from tissue; host or cells: Wistar rat liver
T3 sequence (P15823 1-515): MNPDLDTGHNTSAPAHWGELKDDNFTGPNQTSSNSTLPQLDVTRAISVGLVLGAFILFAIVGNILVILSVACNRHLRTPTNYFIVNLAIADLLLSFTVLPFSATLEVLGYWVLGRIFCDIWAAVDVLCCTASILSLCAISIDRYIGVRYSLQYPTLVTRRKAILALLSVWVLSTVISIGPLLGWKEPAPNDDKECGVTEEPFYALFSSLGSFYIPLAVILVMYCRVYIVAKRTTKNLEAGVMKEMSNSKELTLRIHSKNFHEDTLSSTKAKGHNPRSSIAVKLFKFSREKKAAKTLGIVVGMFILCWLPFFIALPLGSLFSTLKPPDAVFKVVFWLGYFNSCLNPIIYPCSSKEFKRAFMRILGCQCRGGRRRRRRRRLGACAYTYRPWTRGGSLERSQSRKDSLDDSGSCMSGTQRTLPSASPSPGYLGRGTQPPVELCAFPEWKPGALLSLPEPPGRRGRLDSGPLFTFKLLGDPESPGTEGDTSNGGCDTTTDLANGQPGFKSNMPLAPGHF
Method in brief: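 Rat α1B receptor from Wistar rat liver was incubated with 0.25 nM [3H]prazosin for 60 min at 25 °C in 50 mM Tris-HCl, pH 7.4, 0.5 mM EDTA. Non-specific binding was defined with 10 μM phentolamine. Bound radioligand was measured by filtration and counting, reported as percent inhibition of specific binding.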

[4] = biological target: T4, human recombinant adrenergic α1D receptor (Homo sapiens, UniProt P25100); test: Radioligand binding, adrenergic α1D ([3H]Prazosin); settings: 0.1 μM compound; read-out: Percentage inhibition of ligand binding, Adrenergic α1D
T4 construct: expressed in transfected cells; host or cells: HEK-293
T4 sequence (P25100 1-572): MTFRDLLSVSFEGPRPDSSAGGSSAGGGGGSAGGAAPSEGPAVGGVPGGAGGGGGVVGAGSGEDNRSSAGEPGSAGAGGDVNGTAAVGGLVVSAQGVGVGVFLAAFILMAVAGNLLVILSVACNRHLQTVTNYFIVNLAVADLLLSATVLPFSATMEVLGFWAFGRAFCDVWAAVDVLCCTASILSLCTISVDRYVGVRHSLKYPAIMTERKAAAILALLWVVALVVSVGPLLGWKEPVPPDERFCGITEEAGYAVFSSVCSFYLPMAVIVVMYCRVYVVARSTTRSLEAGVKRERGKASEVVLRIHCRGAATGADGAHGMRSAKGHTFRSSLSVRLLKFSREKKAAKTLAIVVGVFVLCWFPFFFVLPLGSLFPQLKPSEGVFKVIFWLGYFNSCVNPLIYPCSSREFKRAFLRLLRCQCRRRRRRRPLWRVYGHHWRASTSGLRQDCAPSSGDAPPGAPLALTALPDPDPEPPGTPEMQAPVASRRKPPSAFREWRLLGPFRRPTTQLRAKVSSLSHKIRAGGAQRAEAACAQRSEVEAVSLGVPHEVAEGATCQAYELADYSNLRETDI
Procedure: Compounds were incubated with 0.6 nM [3H]Prazosin for 60 min at 25° C. Non-specific binding was estimated in the presence of 10 μM phentolamine. Receptor proteins were filtered and washed, the filters were then counted to determine [3H]Prazosin specifically bound. […] Biochemical assay results are presented as the percent inhibition of specific binding in Table B1.

inhibition at 0.1 µM [1] [%] | inhibition at 0.1 µM [2] [%] | inhibition at 0.1 µM [3] [%] | inhibition at 0.1 µM [4] [%] | SMILES
101 | 71 | 86 | 81 | C/C(=C/n1c2c(c3cc(C)ccc31)CN(C)CC2)c1ccc(F)nc1 [compound 276]
96 | 80 | 90 | 79 | C/C(=C/n1c2c(c3cc(C)ccc31)CN(C)CC2)c1cccc2[nH]ncc12 [compound 290]
104 | 58 | 13 | 23 | C/C(=C\n1c2c(c3cc(C)ccc31)CN(C)CC2)c1cncc2ccccc12 [compound 292]
41 | 94 | 76 | 39 | Cc1ccc2c(c1)c1c(n2CCc2csc3ccccc23)CCN(C)C1 [compound 294, 5-(2-benzo[b]thiophen-3-yl-ethyl)-2,8-dimethyl-2,3,4,5-tetrahydro-1H-pyrido[4,3-b]indole]
46 | 50 | 69 | 36 | Cc1ccc2c(c1)c1c(n2CCc2cccc(C)n2)CCN(C)C1 [compound 297, 2,8-dimethyl-5-[2-(6-methyl-pyridin-2-yl)-ethyl]-2,3,4,5-tetrahydro-1H-pyrido[4,3-b]indole]
54 | 52 | 78 | 47 | Cc1ccc(CCn2c3c(c4cc(C)ccc42)CN(C)CC3)nc1 [compound 299, 2,8-dimethyl-5-[2-(5-methyl-pyridin-2-yl)-ethyl]-2,3,4,5-tetrahydro-1H-pyrido[4,3-b]indole]
86 | 67 | 14 | 29 | Cc1ccc2c(c1)c1c(n2C2=C(c3cccnc3)CCC2)CCN(C)C1 [compound 300, 2,8-dimethyl-5-(2-(pyridin-3-yl)cyclopent-1-enyl)-2,3,4,5-tetrahydro-1H-pyrido[4,3-b]indole]

Continued, compound first:

SMILES | inhibition at 0.1 µM [1] [%] | inhibition at 0.1 µM [2] [%] | inhibition at 0.1 µM [3] [%] | inhibition at 0.1 µM [4] [%]
C/C(=C/n1c2c(c3cc(C)ccc31)CN(C)CC2)c1ccc(C)s1 [compound 277] | 97 | 98 | 71 | 84
C/C(=C\n1c2c(c3cc(C)ccc31)CN(C)CC2)c1ccc(C)s1 [compound 278] | 98 | 93 | 62 | 44
C/C(=C/n1c2c(c3cc(C)ccc31)CN(C)CC2)c1cnc(N(C)C)nc1 [compound 279] | 92 | 90 | 79 | 93
CSc1ccc(/C(C)=C/n2c3c(c4cc(Cl)ccc42)CN(C)CC3)cc1 [compound 280] | 98 | 97 | 76 | 65
C/C(=C\n1c2c(c3cc(Cl)ccc31)CN(C)CC2)c1ccc(S(C)(=O)=O)cc1 [compound 281] | 90 | 72 | 67 | 47
C/C(=C\n1c2c(c3cc(C)ccc31)CN(C)CC2)c1ccc2[nH]cnc2c1 [compound 282] | 101 | 75 | 33 | 30
C/C(=C\n1c2c(c3cc(C)ccc31)CN(C)CC2)c1ccc2c(ccn2C)c1 [compound 283] | 89 | 90 | 63 | 46
C/C(=C/n1c2c(c3cc(C)ccc31)CN(C)CC2)c1ccc2ccn(C)c2c1 [compound 284] | 76 | 97 | 83 | 81
C/C(=C\n1c2c(c3cc(C)ccc31)CN(C)CC2)c1cc(C)cs1 [compound 285] | 97 | 98 | 63 | 71
C/C(=C/n1c2c(c3cc(C)ccc31)CN(C)CC2)c1cccc2ccccc12 [compound 286] | 60 | 80 | 26 | 19
C/C(=C/n1c2c(c3cc(C)ccc31)CN(C)CC2)c1sccc1C [compound 287] | 98 | 99 | 81 | 69
C/C(=C/n1c2c(c3cc(C)ccc31)CN(C)CC2)c1cc(C)cs1 [compound 291] | 105 | 102 | 88 | 85
C/C(=C/n1c2c(c3cc(C)ccc31)CN(C)CC2)c1cc2ccccc2s1 [compound 293] | 93 | 96 | 73 | 82
CSc1cccc(/C(C)=C/n2c3c(c4cc(Cl)ccc42)CN(C)CC3)c1 [compound 295] | 79 | 69 | 15 | 7
C/C(=C\n1c2c(c3cc(Cl)ccc31)CN(C)CC2)c1cccc(S(C)(=O)=O)c1 [compound 296] | 70 | 60 | 20 | 33
Cc1ccc2c(c1)c1c(n2CCc2cccc(N(C)C)c2)CCN(C)C1 [compound 298, {3-[2-(2,8-dimethyl-1,2,3,4-tetrahydro-pyrido[4,3-b]indol-5-yl)-ethyl]-phenyl}-dimethyl-amine] | 51 | 54 | 60 | 17
